Here are results for eight compounds from PubChem BioAssay (NCI).

Experiment in all cases: NCI anticancer screen, dose series, 48 h
Experiment [1] concerns ACHN renal.
Experiment [2] concerns COLO 205 colon.
For experiment [3], the system named is HCT-15 colon.
Experiment [4] deals with MALME-3M melanoma.
Experiment [5] concerns MOLT-4 leukemia.
Experiment [6] has as its system RPMI-8226 leukemia.
Experiment [7] has as its system SW-620 colon.
Experiment [8] concerns T-47D breast.
The test system of experiment [9] is U251 CNS.
In experiment [10] the test system is M14 melanoma.

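48-hour exposure; five concentrations; linearly interpolated endpoints. GI50 is the concentration that inhibits growth by half. TGI marks complete inhibition of growth.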 Where a SMILES comes first, the peptide text is derived from it. [ ]: non-standard residue; d: D form. The star is where a group is joined. ξ: configuration not given here. dIva = CC[C@@](C)(N)C(=O)O; Aib = CC(C)(N)C(=O)O; ξP = O=C(O)C1CCCN1; βAla = NCCC(=O)O; X5 = OCN*

With `CCN1C(=O)N(CC)C2C1NN=c1s/c(=C\c3cnc(C)n3C)c(=O)n12` (configuration not stated), the GI50 is 5.94 µM in [1]; 1.63 µM in experiment [2]; 3.42 µM in [3]; 2.96 µM in experiment [4]; 3.24 µM in experiment [5]; 3.47 µM in experiment [6]. Further, the GI50 in experiment [7] is 2.01 µM; in experiment [8], 4.81 µM; in experiment [9], 2.83 µM. Moreover, the TGI in experiment [1] is over 100 µM; in experiment [2], 4.88 µM; in experiment [3] it was over 100 µM; in [4], over 100 µM; in experiment [5], over 100 µM; in experiment [6] it was over 100 µM. For the same compound, the TGI in experiment [7], in experiment [8] and in [9] was over 100 µM each time.
As to `COc1cc(OC)c2c(c1Cl)O[C@]1(C2=O)C(OCc2ccccc2)=CC(=O)C[C@H]1C`, the GI50 in [1] was 0.785 µM; in experiment [2], 0.43 µM; in experiment [3], 0.487 µM; in [10], 0.612 µM; in experiment [4], 12 µM; in experiment [5] it was 0.826 µM. In addition, the figures for the GI50 in [6], in experiment [7] and in experiment [8] were 1.13 µM, 0.641 µM and 0.792 µM, respectively. Also, the TGI was over 100 µM in experiment [1]; 1.69 µM in experiment [2]; over 100 µM in experiment [3]; 40.5 µM in [10]; 55.8 µM in experiment [4]; 8.79 µM in experiment [5]. The TGI is 17 µM in [6], over 100 µM in [7] and 67.8 µM in [8].
In the case of `C[C@H](CCCOS(C)(=O)=O)[C@H]1CC[C@H]2[C@@H]3CC[C@@H]4C[C@H](OS(C)(=O)=O)CC[C@]4(C)[C@H]3CC[C@]12C`, the GI50 in [1] is 395 µM; in experiment [2] it was 1130 µM; in experiment [3], 1020 µM; in experiment [10], 706 µM; in [4] it was 994 µM; in experiment [6] it was 69.9 µM. Also, the GI50 in [7] was over 2500 µM; in experiment [8], 1040 µM; in [9] it was 356 µM. In addition, the TGI in experiment [2] was over 2500 µM; in experiment [3], over 2500 µM; in experiment [10] it was over 2500 µM; in [6], 1260 µM; in experiment [7], over 2500 µM; in experiment [8], over 2500 µM.
Take `CC[C@@](C)(NC(=O)[C@H](C)NC(=O)CCNC(=O)C(C)(C)NC(=O)[C@H](C)NC(=O)[C@@H]1CCCN1C(=O)[C@@](C)(CC)NC(=O)[C@H](Cc1ccccc1)NC(=O)C1CCCN1C(=O)C(C)(C)NC(=O)C1CCCN1C(=O)C(C)(C)NC(C)=O)C(=O)NCCC(=O)N[C@@H](CC(C)C)C(=O)NC(C)(C)C(=O)NCCC(=O)N[C@@H](CC(C)C)C(=O)NC(C)(C)C(=O)NC(C)(C)C(=O)N[C@@H](CC(C)C)C(=O)NCCC(=O)NCO` (some centres not stated) (Ac-[Aib][ξP][Aib][ξP]F[dIva]PA[Aib][βAla]A[dIva][βAla]L[Aib][βAla]L[Aib][Aib]L[βAla]-X5): the GI50 in [1] is 0.199 µM; in [2] it was 0.0681 µM; in experiment [3] it was 0.229 µM; in experiment [10] it was 0.188 µM; in experiment [4] it was 0.0595 µM; in experiment [5] it was 0.306 µM. Moreover, the values for the GI50 in experiment [7], in experiment [8] and in experiment [9] were 0.149 µM, 0.0739 µM and 0.0814 µM, respectively. For the same compound, the TGI came to 0.428 µM in experiment [1]; 0.248 µM in [2]; 0.446 µM in experiment [3]; 0.391 µM in experiment [10]; 0.256 µM in experiment [4]; 0.645 µM in [5]. The TGI amounted to 0.403 µM in experiment [7], 0.302 µM in [8] and 0.268 µM in experiment [9].
Turning to `COC(=O)C1=C(O)C(C(=O)OC)[C@@]2(O)[C@@H](C(=O)OC)C(c3ccccc3Cl)C[C@@H]1[C@@H]2C(=O)OC` (some centres not stated), the GI50 is 5.96 µM in [1]; 14.1 µM in experiment [2]; 4.7 µM in experiment [3]; 10.6 µM in experiment [4]; 3.31 µM in [5]; 1.88 µM in [6]. In addition, the GI50 in experiment [7] is 5.46 µM; in [8], 11.6 µM; in experiment [9], 3.76 µM. The TGI came out at 23.4 µM in experiment [1]; 31.5 µM in [2]; 18 µM in experiment [3]; 29.9 µM in experiment [4]; 20.7 µM in [5]; 6.2 µM in experiment [6]. Besides, the TGI is 21.9 µM in experiment [7], 40.3 µM in experiment [8] and 15 µM in experiment [9].
Regarding `N#CC1C(=O)NC(=O)C(C#N)C1c1ccc(Cl)c(Cl)c1` (configuration not stated), the TGI in experiment [1] was 50.9 µM; in experiment [2], over 100 µM; in experiment [3] it was 46.1 µM; in experiment [10], 56 µM; in [4], over 100 µM; in experiment [5], 62 µM. In addition, the TGI in [7] is 36.8 µM; in experiment [8] it was over 100 µM; in experiment [9], 51.5 µM.
On to `COn1cc(C(=O)N=C(SC)SC)c2ccccc21`, for which the GI50 in [1] was 22 µM; in experiment [2] it was 30.2 µM; in experiment [3], 22.4 µM; in [10] it was 18.4 µM; in experiment [5] it was 9.42 µM; in experiment [6], 17.9 µM. In addition, the GI50 in experiment [7] was 34.8 µM; in experiment [8], 75.1 µM; in [9], 22.3 µM. The TGI in experiment [1] was 47.7 µM; in experiment [2], over 100 µM; in [3] it was 62.5 µM; in experiment [10] it was 48.1 µM; in experiment [5], 30.1 µM; in experiment [6] it was over 100 µM. The TGI in experiment [7] is over 100 µM; in [8], over 100 µM; in experiment [9] it was 70.6 µM.
As to `Nc1nc(N)c(-c2ccc(Cl)cc2)c(/C=C/c2ccc([N+](=O)[O-])cc2)n1`, the GI50 is 3.85 µM in experiment [1]; 6.01 µM in [2]; 3.97 µM in experiment [3]; 7.15 µM in experiment [10]; 8.27 µM in experiment [5]; 5.8 µM in experiment [6]. Besides, the GI50 was 4.08 µM in experiment [7], 6.19 µM in [8] and 3.99 µM in experiment [9]. In addition, the TGI in experiment [1], in experiment [2], in experiment [3], in [10], in experiment [5] and in experiment [6] was over 100 µM each time. The values for the TGI in experiment [7], in [8] and in experiment [9] were over 100 µM, over 100 µM and 23.8 µM, respectively.
